Results taken from patent publication US9492465B2, “Gold(I) complexes with t-butyl phosphine and dialkyl dithiocarbamate ligands” (KING FAHD UNIVERSITY OF PETROLEUM AND MINERALS, priority 2014, dated 2016).

What was measured:
Assay type in all cases: cell-based
[1] = system: A549 (human lung carcinoma) cell line; experiment: in vitro cytotoxicity, MTT assay, A549 cell line; conditions: 24 h exposure, read-out: IC50 Values against A549
Protocol: (§1) The cells were seeded at 4×10^3 cells/well in 100 μL DMEM (Dulbecco's Modified Eagle's Medium) containing 10%. FBS (Fetal Bovine Serum) in 96-wells tissue culture plate and incubated for 72 h at 37° C., 5% CO2 in air and 90% relative humidity in CO2 incubator. […] The medium of wells was discarded and 100 μL DMEM containing MTT (3-(4,5-Dimethylthiazol-2-Yl)-2,5-Diphenyltetrazolium Bromide) (5 mg/mL) was added to the wells and incubated in CO2 incubator at 37° C. in dark for 4 h. After incubation, a purple colored formazan (artificial chromogenic dye, product of the reduction of water insoluble tetrazolium salts e.g., MMT by dehydrogenases and reductases) in the cells is produced and appeared as dark crystals in the bottom of the wells. The medium of culture was discarded from each well carefully to avoid disruption of monolayer and 100 μL of Dimethylsufoxide (DMSO) was added in each well. The solution was thoroughly mixed in the wells to dissolve the formazan crystals which ultimately result into a purple solution. The absorbance of the 96-wells plate was taken at 570 nm with Labsystems Multiskan EX-Enzyme-linked immunosorbent assay (EX-ELISA) reader against a reagent blank.
(§2) The in vitro cytotoxicity tests were evaluated for the gold(I) precursor, labeled as (0) and two synthesized complexes labeled as (1) and (2)against three human cancer cell lines, MCF7, HeLa and A549 using MTT assay.

[2] = system: MCF7 (human breast cancer) cell line; experiment: in vitro cytotoxicity, MTT assay, MCF7 cell line; conditions: 24 h exposure, read-out: IC50 Values against MCF7
Protocol: Metal precursor and two synthesized compound (1)and compound (2) were evaluated for their in-vitro cytotoxic activity against MCF7 (human breast cancer), HeLa (human cervical cancer) and A549 (human lung carcinoma) cell lines.
The cells were seeded at 4×10^3 cells/well in 100 μL DMEM (Dulbecco's Modified Eagle's Medium) containing 10%. FBS (Fetal Bovine Serum) in 96-wells tissue culture plate and incubated for 72 h at 37° C., 5% CO2 in air and 90% relative humidity in CO2 incubator. After incubation, 100 μL of complex (0),(1)and (2) (50, 25, 12.5, 6.25 and 3.12 μg/mL), prepared in DMEM, was added to cells and the cultures were incubated for 24 h. The medium of wells was discarded and 100 μL DMEM containing MTT (3-(4,5-Dimethylthiazol-2-Yl)-2,5-Diphenyltetrazolium Bromide) (5 mg/mL) was added to the wells and incubated in CO2 incubator at 37° C. in dark for 4 h. After incubation, a purple colored formazan (artificial chromogenic dye, product of the reduction of water insoluble tetrazolium salts e.g., MMT by dehydrogenases and reductases) in the cells is produced and appeared as dark crystals in the bottom of the wells. The medium of culture was discarded from each well carefully to avoid disruption of monolayer and 100 μL of Dimethylsufoxide (DMSO) was added in each well. The solution was thoroughly mixed in the wells to dissolve the formazan crystals which ultimately result into a purple solution. The absorbance of the 96-wells plate was taken at 570 nm with Labsystems Multiskan EX-Enzyme-linked immunosorbent assay (EX-ELISA) reader against a reagent blank.
The in vitro cytotoxicity tests were evaluated for the gold(I) precursor, labeled as (0) and two synthesized complexes labeled as (1) and (2)against three human cancer cell lines, MCF7, HeLa and A549 using MTT assay. The dose dependent cytotoxic effect was obtained by the stipulated increase in concentrations of complexes (0), (1) and (2) against the fixed number of human cancer cells. […] FIG. 3 is a graph of the in vitro cytotoxic effect of series of concentrations of compound (0) on MCF7 cell line. […]

[3] = system: HeLa (human cervical cancer) cell line; experiment: in vitro cytotoxicity, MTT assay, HeLa cell line; conditions: for cytotoxic effects on HeLa cell line compared with Auranofin: 50 μg/mL concentration; for IC50: HeLa cell line, 24 h exposure, read-out: IC50 Values against HeLa; for IC50 / percent viability of HeLa: MTT; for percent viability of HeLa: 24 h
Protocol: as §1, §2

[4] = concentration 3.12 (title μM, head iM)
[5] = concentration 6.25 (title μM, head iM)
[6] = concentration 12.5 (title μM, head iM)
[7] = concentration 25 (title μM, head iM)
[8] = concentration 50 (title μM, head iM)

SMILES	IC50 [1]	IC50 [2]	cytotoxic effects on HeLa cell line compared with Auranofin [3]	IC50 [3]	percent viability of HeLa [3, 4]	percent viability of HeLa [3, 5]	percent viability of HeLa [3, 6]	percent viability of HeLa [3, 7]	percent viability of HeLa [3, 8]
CCN(CC)C(=S)[S][Au][PH](C(C)(C)C)(C(C)(C)C)C(C)(C)C [Complex (2), [Au{P(t-Bu)3}(S2CN(C2H5)2)]]	19.4 µM	16 µM	better than Auranofin	3.21 µM	53.9 ± 1.9%	38.6 ± 1.2%	27.9 ± 1.0%	22.9 ± 1.2%	9.41 ± 1.16%
CN(C)C(=S)[S][Au][PH](C(C)(C)C)(C(C)(C)C)C(C)(C)C [Complex (1), [Au{P(t-Bu)3}(S2CN(CH3)2)]]	26.9 µM	21.1 µM	better than Auranofin	2.07 µM	50.6 ± 1.5%	34.4 ± 0.9%	19.5 ± 1.4%	15.3 ± 1.1%	8.7 ± 1.2%
CC(C)(C)P(C(C)(C)C)C(C)(C)C.[Cl][Au] [Complex (0), [Au{P(t-Bu)3}(Cl)], reference compound]	14.3 µM	16.7 µM		16 µM	93.6 ± 2.4%	89.5 ± 2.3%	81.9 ± 1.9%	27.3 ± 1.5%	12.4 ± 1.1%
